For this test, the system named is tumors from Prkci^fl/fl Prkcz^fl/fl Villin-cre (DKO) mice. The test can be described thus: scRNAseq and IHC of DKO mouse intestinal tumors treated with PVHA or Galunisertib. In kind it is in vivo. How it is done:
FIG. 3A illustrates the experimental design: Prkci^fl/flPrkcz^fl/fl (DKO) mice were treated either with PVHA (0.0375 mg/Kg twice per week) or Galunisertib (10 mg twice daily) as described. Intestinal tumors were analyzed by scRNAseq.
To identify the mechanism of action of PVHA in the treatment of CMS4 tumors, scRNAseq was performed using 10× Genomics Chromium platform on tumors from Prkci^fl/fl Prkcz^fl/fl Villin-cre (DKO) mice (n=5) treated with PVHA for 14 weeks (n=3), as compared to those treated with Galunisertib (GAL) for 17 weeks (n=3), as shown in experimental design (FIG. 3A). Unsupervised clustering identified tumor and normal epithelial cells as well as stromal and immune cells with selective markers for each population (FIGS. 3B-3C). […] Among tumor clusters (0,4,6), a cell population with transcriptomic similarities to the recently identified “revival stem cells” (RSC; high Clu) in the vehicle treated tumors was identified (FIGS. 3F-3G).

On to `Cc1cccc(-c2nn3c(c2-c2ccnc4ccc(C(N)=O)cc24)CCC3)n1` [GAL, Galunisertib, reference compound], for which the “Cd8 T cells, cell type proportion” value (scRNAseq T cells) is given as “increase”. Further, the “fibroblast clusters associated with human CRC (Grem1/Sfrp1, Igf1/Cxcl14), CMS4 subtype (Sfrp2) and tumor initiation (Ptgs2/Spp1)” value (scRNAseq cell-type proportion) was “complete elimination”. The tumoral goblet population result (scRNAseq goblet cells) is listed as “reduction”. Also, under “scRNAseq immune cells”, the “T cells, cell-type proportion” value is listed as “increase” and the “myeloid cells, cell-type proportion” value is given as “decrease”. Also, for the setting “scRNAseq myeloid cells”, the “TAN1 (anti-tumoral neutrophils)” value is recorded as “only increased” and the “TAN2 (pro-tumoral neutrophils)” value is listed as “without affecting”. For the same compound, the “percentage of stromal and immune cells” value (scRNAseq, PVHA 0.0375 mg/Kg twice per week, 14 weeks, Galunisertib 10 mg twice daily, 17 weeks) is reported as “decreased”. The “number of stromal cells” value (scRNAseq, without apparent changes in cell-type proportions) is on record as “reduced”.
